Test results published in ChEMBL document CHEMBL1201862, “PubChem BioAssay data set” (2004).
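Following 48 hours of exposure in 96-well plates, responses at five concentrations were used to interpolate endpoints linearly. At the GI50, growth is halved.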 Calls of active or inactive are those of the source. Cut-off read from the data, not from the text of the source: active = GI50 up to about 1.1 µM and inactive = higher.

Experiments:
Assay in all cases: DTP human tumour cell line panel, 48 h
MDA-N = tested on: MDA-N
BT-549 = tested on: BT-549
HOP-18 = tested on: HOP-18
DMS-114 = tested on: DMS-114
SNB-78 = tested on: SNB-78
DMS-273 = tested on: DMS-273
KM-20L2 = tested on: KM-20L2
XF498 = tested on: XF498

| Compound | GI50 (MDA-N) | GI50 (BT-549) | GI50 (DMS-114) | other results |
| --- | --- | --- | --- | --- |
| CN(C)c1ccc(/C=C/C(=O)CC(=O)/C=C/c2ccc(N(C)C)cc2)cc1 | 83.2 µM (inactive) | – | – | – |
| O=C1NN=C2C=C(c3ccc(Cl)cc3)CC(c3cccc(Br)c3)C12 (configuration not stated) | > 100 µM (inactive) | > 100 µM (inactive) | – | – |
| CN1CCN(c2ccc3nc(C4=C(O)C(=O)[C@@H]5C(=C4O)N=C(CO)N5C)[nH]c3n2)CC1 | – | > 100 µM (inactive) | – | – |
| CN(C)CCNC1=Nc2ccccc2C(=O)N2CSCC12 (configuration not stated) | > 100 µM (inactive) | > 100 µM (inactive) | – | – |
| COC(=O)CC1(O)C(C=C(C)C)C(C(=O)OC)C(=O)C(C(=O)OC)C1C(=O)OC (configuration not stated) | > 100 µM (inactive) | 11.4 µM (inactive) | – | – |
| Cc1cc(O)nc(NNC(C#N)c2ccc(N(C)C)cc2)n1 (configuration not stated) | – | – | > 100 µM (inactive) | GI50 (HOP-18): > 100 µM (inactive); GI50 (SNB-78): > 100 µM (inactive); GI50 (DMS-273): > 100 µM (inactive); GI50 (KM-20L2): > 100 µM (inactive) |
| CC[C@@H]1CC[C@@H]2[C@H](CC[C@]3(C)[C@@H](O)CC[C@@H]23)[C@H]1CO | > 100 µM (inactive) | > 100 µM (inactive) | – | – |
| Cc1ccc(C(C2C(=O)N(C)C(=O)N(C)C2=O)C(F)(F)C(=O)N(C)C)cc1 (configuration not stated) | – | > 100 µM (inactive) | – | – |
| O=C(O)c1cc2c(s1)C(=O)c1sccc1C2=O | 0.769 µM (active) | 1.91 µM (inactive) | 3.34 µM (inactive) | GI50 (HOP-18): 5.52 µM (inactive); GI50 (SNB-78): 0.264 µM (active); GI50 (XF498): 20.9 µM (inactive); GI50 (DMS-273): 10.9 µM (inactive); GI50 (KM-20L2): 19.2 µM (inactive) |
| CC(C)(CN1CCCCC1)C(=O)CC(SCCS(=O)(=O)O)c1ccc(Cl)c(Cl)c1 (configuration not stated) | 3.09 µM (inactive) | 2.9 µM (inactive) | – | – |
| CC1CC(=O)C(CC(=O)O)C1C(C(=O)C(=O)Nc1c(C#N)cccc1[N+](=O)[O-])[N+](=O)[O-] (configuration not stated) | – | – | > 100 µM (inactive) | GI50 (SNB-78): 80.4 µM (inactive); GI50 (XF498): > 100 µM (inactive); GI50 (KM-20L2): > 100 µM (inactive) |
| O=P1(Cc2ccccc2)c2ccccc2-c2ccccc21 | 1.22 µM (inactive) | 2.9 µM (inactive) | – | – |
| O=C(CSSCC(=O)OCCS(=O)(=O)Nc1ccc(Br)cc1)OCCS(=O)(=O)Nc1ccc(Br)cc1 | – | – | 4.26 µM (inactive) | GI50 (HOP-18): > 100 µM (inactive); GI50 (SNB-78): 17.1 µM (inactive); GI50 (DMS-273): 9.51 µM (inactive); GI50 (KM-20L2): 22.9 µM (inactive) |
| Cc1cc2c(cc1C)NC1=C(O)C(c3c[nH]c4ccc(COc5ccccc5)cc34)OC1=N2 (configuration not stated) | > 100 µM (inactive) | > 100 µM (inactive) | – | – |
| CCNC(=O)c1cc(Cl)ccc1NC(=O)C12CC3CC(CC(C3)C1)C2 | 22.5 µM (inactive) | 36.6 µM (inactive) | – | – |
| c1cc2cc3c4c5c(cc6ccc7cc8cc9c%10c8c8c7c6c5c8c5c%10c(c1C9N1CCOCCOCCOCCOCCOCC1)c2c45)C3 (configuration not stated) | > 100 µM (inactive) | > 100 µM (inactive) | – | – |
| CN(CCO)c1nc2c(c(=O)[nH]1)CNCC2 | – | – | > 100 µM (inactive) | GI50 (HOP-18): > 100 µM (inactive); GI50 (SNB-78): > 100 µM (inactive); GI50 (XF498): > 100 µM (inactive); GI50 (DMS-273): > 100 µM (inactive); GI50 (KM-20L2): > 100 µM (inactive) |
| Cc1cc2c(cc1-c1cc3c(cc1C)C(C(C)C)=C(O)C(=O)/C3=C\Nc1nc(-c3ccccc3)cs1)/C(=C/Nc1nc(-c3ccccc3)cs1)C(=O)C(O)=C2C(C)C | 41.1 µM (inactive) | 23.8 µM (inactive) | – | – |
| NCCCN(CCCN(C(=O)Nc1ccccc1)c1ccccc1)C(=O)Nc1ccccc1 | 40.5 µM (inactive) | 31 µM (inactive) | – | – |
| NC(=O)C12C3C4C1C1C2C3C41C(N)=O (configuration not stated) | – | – | > 100 µM (inactive) | GI50 (HOP-18): > 100 µM (inactive); GI50 (DMS-273): > 100 µM (inactive); GI50 (KM-20L2): > 100 µM (inactive) |
| COc1ccc(S(=O)(=O)c2nnc(S(=O)(=O)Cc3ccccc3)s2)cc1 | – | 27 µM (inactive) | – | – |
| CCOC(=O)c1cc(C2CCN(Cc3ccccc3)C2=O)c(C(=O)C(=[N+]=[N-])C(C)=O)[nH]1 (configuration not stated) | – | > 100 µM (inactive) | – | – |
| CC1=NN(c2cccc(Cl)c2)C2(SCC(=O)N2c2nc3ccccc3s2)C1=CC=Cc1ccccc1 (configuration not stated) | 34.1 µM (inactive) | – | – | – |
| Cc1ccccc1-n1c(=O)sc2c(=O)n(-c3ccccc3)c(=S)[nH]c21 | – | – | 56.2 µM (inactive) | GI50 (HOP-18): > 100 µM (inactive); GI50 (SNB-78): > 100 µM (inactive); GI50 (DMS-273): > 100 µM (inactive); GI50 (KM-20L2): > 100 µM (inactive) |
| COc1cccc(-c2cc(O)c3cc(N4CCN(C)CC4)ccc3n2)c1 | 0.265 µM (active) | 4.46 µM (inactive) | – | – |
| COc1cc(/C=N/N=C(\N)NO)cc(Cl)c1O | – | – | 34.2 µM (inactive) | GI50 (HOP-18): 19.2 µM (inactive); GI50 (SNB-78): 47.4 µM (inactive) |
| O=C(O)c1cccc2c1/C(=N/Nc1ccccc1)CC2 | > 100 µM (inactive) | – | – | – |
| NC1C[C@H](n2cc(/C=C/Br)c(=O)[nH]c2=O)C[C@@H]1CO (some centres not stated) | – | – | > 100 µM (inactive) | GI50 (HOP-18): > 100 µM (inactive); GI50 (DMS-273): > 100 µM (inactive); GI50 (KM-20L2): > 100 µM (inactive) |
| O=C(O)CCc1nc(-c2ccccc2)c(-c2ccccc2)o1 [OXAPROZIN] | > 100 µM (inactive) | > 100 µM (inactive) | – | – |
